Assay results: patent publication US5760213A, “Immunoactivating agent” (Tayca Corporation, priority 1995, dated 1998)

What was measured:
[1] = test system: rats; conditions: oral administration to rats, cited from earlier work
[2] = test system: Sarcoma 180 cancer cells; test: Determination of Cancer Growth Inhibitory Effect (Sarcoma 180 solid cancer in ICR mice); type: in vivo; conditions: Sarcoma 180 subcutaneous graft, 30 mg/kg per day intraperitoneally for 10 days, tumor weight after 5 weeks
Experimental: (§1) First, 1 wt % aqueous solutions of the respective polysaccharides obtained in the above Preparation Examples were prepared. A cationic ion exchange resin was added to each solution to convert the counter ions of carboxyl group of glucuronic acid residue in the polysaccharide into hydrogen ions, and then the solution was neutralized with sodium hydroxide to replace the counter ions with sodium ions, then passed through a 0.2 μm-opening membrane filter and freeze-dried. The resulting polysaccharide preparations were subjected to the following tests.

[3] = test system: C3H/He mice; test: Observation for anaphylaxis-like reaction and sudden death in MDP-primed mice; type: in vivo; conditions: 100 μg/0.2 ml intravenously, 4 hours after MDP
Experimental: as §1
(§2) These mice were left under observation for anaphylaxis-like reaction and sudden death. After 90 minutes from the injection, blood was collected from the surviving mice to determine TNF and IL-6 activities in the serum. TNF activity was calculated on the basis of the ratio of activity of the actinomycin D-treated L-929 cells to that of rHuTNF (human recombination TNF) used as control, with the killing action of the said L-929 cells being taken as index, and indicated by ng/ml. In the case of IL-6 activity, the IL-6 dependent MH60.BSF2 cell growth stimulating action was taken as index, and the IL-6 activity was calculated on the basis of the calibration curves obtained from the test of IL-6 and control rHuIL-6, and indicated by U/ml.

[4] = test system: TNF; test: Measurement of Tumor Necrosis Factor (TNF) inducibility; type: in vivo; conditions: serum 90 minutes after injection, 100 μg/0.2 ml intravenously, MDP-primed C3H/He mice; average value ± standard deviation
Experimental: as §1, §2

[5] = test system: IL-6; test: Measurement of Interleukin (IL-6) inducibility; type: in vivo; conditions: serum 90 minutes after injection, 100 μg/0.2 ml intravenously, MDP-primed C3H/He mice; average value ± standard deviation
Experimental: as §1, §2

[6] = test system: myeloma cell strain NS-1/Z; test: Determination of Cytotoxic T Cell (CTL) Inducibility; type: in vivo, BALB/c mouse (target cells); C3H mice (effector cells); conditions: 20 mg/kg/day, subcutaneous, four times, relative to physiological saline control
Experimental: as §1
The following test was conducted on the C3H mice and BALB/c mice which are different in H-2 haplotype.
The spleen lymphocytes (2×10^7) of the BALB/c mice were immunized in the abdominal cavities of the C3H mice (4 mice per group: N=4). Each of the test specimens shown in Table 5 was given subcutaneously to the back of each of the said C3H mice at a dose of 50 mg/kg or 20 mg/kg, once a day, four times in all, from the day before immunization till 2 days after immunization. As control, physiological saline was used instead of the test specimens. After 9 days, the spleen lymphocyte suspension was collected from the C3H mice. This lymphocyte suspension contained the cytotoxic T cells (hereinafter referred to as effector cells and abbreviated as E). Then, 10^4 cells of myeloma cell strain NS-1/Z (hereinafter abbreviated as T) derived from the BALB/c mouse into which β-galactosidase (β-gal) of Escherichia coli had been introduced, were mixed as target cells with the effector cells so that the E/T ratio would become 30, 60 or 120, and the mixture was kept in 0.2 ml of a medium RPMI-1640 at 37° C. for 4 hours. The activity of β-gal released into the supernatant by destruction of the target cells was measured, and the cytotoxicity by CTL was calculated from the following equation. [formula] A: released β-gal activity B: naturally released β-gal activity (enzyme release observed when no effector cells are present)
C: overall β-gal activity (T used is dissolved in 0.0425% Triton-X100 and the overall enzyme activity is measured.) [formula]

Which results are given for `O=P1(N(CCCl)CCCl)NCCCO1` (stereo not shown) [Cyclophosphide]?
LD50 (female) ([1]; female): 118 mg/kg; LD50 (male) ([1]; male): 100 mg/kg

With Lentinan as the compound, how does the “Cancer cell growth inhibition percentage” value [2] read?
The value was 100%.

What does the source list for Schizophyllan?
Anaphylaxis-like reaction [3]: 0/3; Sudden death [3]: 0/3; TNF [4]: 0 ± 0 ng/mL; IL-6 [5]: 14.1 ± 2.2 U/ml; Immunoactivating activity, E/T = 30 ([6]; E/T = 30): 5.5; Immunoactivating activity, E/T = 60 ([6]; E/T = 60): 2.0; Immunoactivating activity, E/T = 120 ([6]; E/T = 120): 1.7
